We go through 9 compounds from patent US7875644B2, “1-acyldihydropyrazole derivatives” (Merck Patent GmbH, priority 2005, dated 2011).

Molecules are shown by their SMILES.

A word on the IC50: it is the concentration at which inhibition is half-maximal. Read a low IC50 as greater potency.

T1 sequence (P08581 974-1390 limits assumed): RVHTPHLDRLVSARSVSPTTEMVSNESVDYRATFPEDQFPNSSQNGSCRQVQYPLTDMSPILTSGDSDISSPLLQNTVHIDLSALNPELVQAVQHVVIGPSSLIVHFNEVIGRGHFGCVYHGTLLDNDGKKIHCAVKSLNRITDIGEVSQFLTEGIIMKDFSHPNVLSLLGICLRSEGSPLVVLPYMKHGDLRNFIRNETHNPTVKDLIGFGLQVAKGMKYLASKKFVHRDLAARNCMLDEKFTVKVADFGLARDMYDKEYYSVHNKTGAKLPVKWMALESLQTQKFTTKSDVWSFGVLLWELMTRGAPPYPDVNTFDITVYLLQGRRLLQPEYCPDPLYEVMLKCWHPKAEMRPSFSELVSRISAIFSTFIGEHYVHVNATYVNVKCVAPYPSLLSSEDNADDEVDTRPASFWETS

This test has as its target T1, Met kinase (Homo sapiens, UniProt P08581).
T1 construct: 6His (N); purchased Upstate 14-526; host or cells: Sf21 insect cells (S. frugiperda), baculovirus
Description: Met kinase inhibition, flashplate method. Type of test: biochemical. Particulars: 33P-ATP, substrate pAGLT, 3 hrs at room temperature. An excerpt: According to the manufacturer's data (Met, active, upstate, catalogue No. 14-526), Met kinase is expressed for the purposes of protein production in insect cells (Sf21; S. frugiperda) and subsequent affinity-chromatographic purification as “N-terminal 6His-tagged” recombinant human protein in a baculovirus expression vector.
The test plates used are 96-well Flashplate^R microtitre plates from Perkin Elmer (Cat. No. SM P200). The components of the kinase reaction described below are pipetted into the assay plate. The Met kinase and the substrate poly Ala-Glu-Lys-Tyr, (pAGLT, 6:2:5:1), are incubated for 3 hrs at room temperature with radioactively labelled ^33P-ATP in the presence and absence of test substances in a total volume of 100 μl. The reaction is terminated using 150 μl of a 60 mM EDTA solution. After incubation for a further 30 min at room temperature, the supernatants are filtered off with suction, and the wells are washed three times with 200 μl of 0.9% NaCl solution each time. The measurement of the bound radioactivity is carried out by means of a scintillation measuring instrument (Topcount NXT, Perkin-Elmer).
The full value used is the inhibitor-free kinase reaction. This should be approximately in the range 6000-9000 cpm. The pharmacological zero value used is staurosporin in a final concentration of 0.1 mM. The inhibitory values (IC50) are determined using the RS1_MTS program.
Kinase reaction conditions per well: • 30 μl of assay buffer • 10 μl of substance to be tested in assay buffer with 10% of DMSO • 10 μl of ATP (final concentration 1 μM cold, 0.35 μCi of ^33P-ATP) • 50 μl of Met kinase/substrate mixture in assay buffer; • (10 ng of enzyme/well, 50 ng of pAGLT/well) • Solutions used: • Assay buffer: • 50 mM HEPES • 3 mM magnesium chloride • 3 μM sodium orthovanadate • 3 mM manganese(II) chloride • 1 mM dithiothreitol (DTT) • pH=7.5 (to be set using sodium hydroxide) • Stop solution: • 60 mM Titriplex III (EDTA) • ^33P-ATP: Perkin-Elmer; • Met kinase: Upstate, Cat. No. 14-526, Stock 1 μg/10 μl; spec. activity 954 U/mg; • Poly-Ala-Glu-Lys-Tyr, 6:2:5:1:Sigma Cat. No. P1152
In the case of `CC(C(=O)N1CCC(c2cc(Cl)ccc2O)=N1)c1ccc(O)cc1` (stereo not drawn) [Compound A120, 3-(3-Chloro-6-hydroxyphenyl)-1-[2-(4-hydroxy-phenyl)propionyl]-4,5-dihydro-1H-pyrazole], the IC50 amounted to 3.6 nM. This lies in the single-digit nanomolar range.

Consider `CN(C)CCCOC(=O)Nc1cccc(CC(=O)N2CCC(c3cc(Cl)ccc3Cl)=N2)c1` [Compound A153, 3-Dimethylaminopropyl (3-{2-[3-(2,5-dichlorophenyl)-4,5-dihydro-1H-pyrazol-1-yl]-2-oxoethyl}phenyl)carbamate], for which half-maximal inhibition (IC50) required 8 nM. The figure for `O=C(Cc1ccc2nsnc2c1)N1CCC(c2ccc(F)cc2)=N1` [Compound A2, 1-(benzo-1,2,5-thiadiazol-5-ylmethylcarbonyl)-3-(4-fluorophenyl)-4,5-dihydro-1H-pyrazole] is 610 nM; for `O=C(Nc1cccc(CC(=O)N2CCC(c3cc(Cl)ccc3Cl)=N2)c1)OCCCN1CCOCC1` [Compound A154, 3-morpholin-4-ylpropyl (3-{2-[3-(2,5-dichlorophenyl)-4,5-dihydro-1H-pyrazol-1-yl]-2-oxoethyl}phenyl)carbamate] it is 2.5 nM; for `CC(C(=O)N1CCC(c2ccc3c(c2)CNC(=O)N3)=N1)c1ccc(O)cc1` (stereo not drawn) [Compound A100, 3-(2-Oxo-3,4-dihydro-1H-quinazolin-6-yl)-1-[2-(4-hydroxyphenyl)propionyl]-4,5-dihydro-1H-pyrazole] it is 9 nM. Turning to `O=C(Cc1ccc2[nH]cnc2c1)N1CCC(c2cc(Cl)ccc2O)=N1` [Compound A108, 1-[2-(1H-Benzimidazol-5-yl)acetyl]-3-(3-chloro-6-hydroxyphenyl)-4,5-dihydro-1H-pyrazole], 3 nM corresponded to half-maximal inhibition (IC50). This IC50 is about 3-fold lower than that of the compound before. For the compound `COc1ccc(C2=NN(C(=O)Cc3cccc(O)c3)CC2)c(OC)c1` [Compound A30, 1-(3-Hydroxybenzylcarbonyl)-3-(2,4-dimethoxy-phenyl)-4,5-dihydro-1H-pyrazole], the IC50 amounted to 990 nM. The figure for `COc1ccc(C2=NN(C(=O)Cc3ccc4nsnc4c3)CC2)c(OC)c1` [Compound A1, 1-(benzo-1,2,5-thiadiazol-5-ylmethylcarbonyl)-3-(2,4-dimethoxyphenyl)-4,5-dihydro-1H-pyrazole] is 320 nM. The figure for `O=C(Cc1cccc(O)c1)N1CCC(c2ccc(F)cc2)=N1` [Compound A31, 1-(3-Hydroxybenzylcarbonyl)-3-(4-fluorophenyl)-4,5-dihydro-1H-pyrazole] is 330 nM.
